{"source": "paper PMC12661054", "about": "“The CIP2A-TOPBP1 axis facilitates mitotic DNA repair via MiDAS and MMEJ” (Nature Communications, 2025)", "test_system": "eGFP-SLX4 and MUS81", "experiment": "Chromatin residency of eGFP-SLX4 and MUS81 (chromatin-fraction co-IP)", "assay_type": "cell-based, human", "details": "acute CDK1 inhibition, eGFP-SLX4 Co-IP from mitotic chromatin", "method": "Cell pellets stored at −80 °C were thawed on ice, followed by addition of ten volumes to 1 NIB-250 (15 mM Tris-HCL (pH 7.5), 60 mM KCl, 15 mM NaCl, 5 mM MgCl2, 1 mM CaCl2, 250 mM sucrose) containing 1 mM DTT, 1x cOmplete, EDTA-free Protease Inhibitor +0.3% NP. The cells were mixed by pipetting gently and then incubated on ice for 10 min. The cell pellet was then centrifuged at 400–600 x g for 5 min at 4 °C. The supernatant was transferred to a separate tube (cytoplasmic fraction). The nuclei pellet was then resuspended in ten volumes of 10:1 NIB-250 without detergent containing 1 mM DTT and 1x cOmplete, EDTA-free Protease Inhibitor. The nuclei were then pelleted by centrifugation at 400–600 x g for 5 min at 4 °C and the supernatant was discarded. The pellet was then resuspended 7 volumes relative to pellet volume of hypotonic buffer (3 mM EDTA, 0.2 mM EGTA containing 1 mM DTT and 1x cOmplete, EDTA-free Protease Inhibitor) and incubated on ice for 30 min, vortexing every 5 min. The insoluble chromatin fraction was collected by centrifugation for 4 min at 1700 x g. The supernatant, was retained, containing the nucleoplasm fraction. The chromatin pellet was washed with hypotonic buffer containing 1 mM DTT and protease inhibitors and the above centrifugation was repeated. The supernatant was discarded and the pellet retained and used as starting material for immunoprecipitation experiments. […]", "data": [{"smiles": "O=C1NC(=NCc2cccs2)S/C1=C\\c1ccc2ncccc2c1", "note": "[CDK1i]", "values": [{"measurement": "chromatin residency of eGFP-SLX4 and MUS81", "value": "markedly impaired chromatin residency of eGFP-SLX4 and MUS81"}]}]}
